Assay [1] relates to Glomerella lagenarium (Colletotrichum lagenarium). Kind of assay: Fungicidal activity against Glomerella lagenarium (Colletotrichum lagenarium) liquid culture / cucumber / preventative (anthracnose). The assay is classed as cell-based. The following applies: Colletotrichum orbiculare; 20 ppm in the applied formulation; liquid culture (PDB), inhibition of growth measured photometrically 3 to 4 days after application; compared to untreated; read-out: disease control. How it is done: Mycelia fragments or conidia suspensions of a fungus prepared either freshly from liquid cultures of the fungus or from cryogenic storage, are directly mixed into nutrient broth. DMSO solutions of the test compound (max. 10 mg/mL) are diluted with 0.025% Tween20 by a factor of 50 and 10 μL of this solution is pipetted into a microtiter plate (96-well format). The nutrient broth containing the fungal spores/mycelia fragments is then added to give an end concentration of the tested compound. The test plates are incubated in the dark at 24° C. and 96% relative humidity. The inhibition of fungal growth is determined photometrically after 2 to 7 days, depending on the pathosystem, and percent antifungal activity relative to the untreated check is calculated. Conidia of the fungus from cryogenic storage are directly mixed into nutrient broth (PDB—potato dextrose broth). After placing a (DMSO) solution of test compound into a microtiter plate (96-well format), the nutrient broth containing the fungal spores is added. The test plates are incubated at 24° C. and the inhibition of growth is measured photometrically 3 to 4 days after application. The following compounds at 20 ppm in the applied formulation give at least 80% disease control in this test when compared to untreated control under the same conditions, which show extensive disease development.

Assay [2] relates to Puccinia recondita f. Sp. Tritici. Kind of assay: Fungicidal activity against Puccinia recondita f. sp. tritici / wheat / leaf disc curative (brown rust). The note with it: foliar, 24 h, 200 ppm in the applied formulation, wheat leaf segments cv. Kanzler, curative (applied 1 day after inoculation), compared to untreated, read-out: disease control. The assay is classed as in vivo. The procedure:
Leaf disks or leaf segments of various plant species are cut from plants grown in a greenhouse. The cut leaf disks or segments are placed in multiwell plates (24-well format) onto water agar. The leaf disks are sprayed with a test solution before (preventative) or after (curative) inoculation. Compounds to be tested are prepared as DMSO solutions (max. 10 mg/mL) which are diluted to the appropriate concentration with 0.025% Tween20 just before spraying. The inoculated leaf disks or segments are incubated under defined conditions (temperature, relative humidity, light, etc.) according to the respective test system. A single evaluation of disease level is carried out 3 to 14 days after inoculation, depending on the pathosystem. Percent disease control relative to the untreated check leaf disks or segments is then calculated. Wheat leaf segments cv. Kanzler are placed on agar in multiwell plates (24-well format). The leaf segments are then inoculated with a spore suspension of the fungus. Plates were stored in darkness at 19C and 75% relative humidity. The formulated test compound diluted in water was applied 1 day after inoculation. The leaf segments were incubated at 19° C. and 75% relative humidity under a light regime of 12 hours light/12 hours darkness in a climate cabinet and the activity of a compound was assessed as percent disease control compared to untreated when an appropriate level of disease damage appears in untreated check leaf segments (6 to 8 days after application). The following compounds at 200 ppm in the applied formulation give at least 80% disease control in this test when compared to untreated control leaf disks under the same conditions, which show extensive disease development.

Assay [3] shares this test system. Put plainly: Fungicidal activity against Puccinia recondita f. sp. tritici / wheat / leaf disc preventative (brown rust). In kind it is in vivo. The following applies: foliar, 200 ppm in the applied formulation, wheat leaf segments cv. Kanzler, preventative (inoculated 1 day after application), compared to untreated, read-out: disease control. How it is done:
Leaf disks or leaf segments of various plant species are cut from plants grown in a greenhouse. The cut leaf disks or segments are placed in multiwell plates (24-well format) onto water agar. The leaf disks are sprayed with a test solution before (preventative) or after (curative) inoculation. Compounds to be tested are prepared as DMSO solutions (max. 10 mg/mL) which are diluted to the appropriate concentration with 0.025% Tween20 just before spraying. The inoculated leaf disks or segments are incubated under defined conditions (temperature, relative humidity, light, etc.) according to the respective test system. A single evaluation of disease level is carried out 3 to 14 days after inoculation, depending on the pathosystem. Percent disease control relative to the untreated check leaf disks or segments is then calculated. Wheat leaf segments cv. Kanzler were placed on agar in multiwell plates (24-well format) and sprayed with the formulated test compound diluted in water. The leaf disks were inoculated with a spore suspension of the fungus 1 day after application. The inoculated leaf segments were incubated at 19° C. and 75% relative humidity (rh) under a light regime of 12 hours light/12 hours darkness in a climate cabinet and the activity of a compound was assessed as percent disease control compared to untreated when an appropriate level of disease damage appears in untreated check leaf segments (7 to 9 days after application). The following compounds at 200 ppm in the applied formulation give at least 80% disease control in this test when compared to untreated control leaf disks under the same conditions, which show extensive disease development.

Each structure is given as a SMILES string.

Regarding `C=CCNC(=O)c1ncn(Cc2ccc(-c3noc(C(F)(F)F)n3)s2)n1` [Compound 1.151, N-allyl-1-[[5-[5-(trifluoromethyl)-1,2,4-oxadiazol-3-yl]-2-thienyl]methyl]-1,2,4-triazole-3-carboxamide], the inhibition of growth at 20 ppm in assay [1] was no less than 80%. The pest or weed control at 200 ppm in assay [2] and in assay [3] was no less than 80% throughout.

Regarding `CON(C)C(=O)c1ccnn1Cc1ccc(-c2noc(C(F)(F)F)n2)s1` [Compound 1.158, N-methoxy-N-methyl-2-[[5-[5-(trifluoromethyl)-1,2,4-oxadiazol-3-yl]-2-thienyl]methyl]pyrazole-3-carboxamide], the inhibition of growth at 20 ppm in assay [1] was no less than 80%. The pest or weed control at 200 ppm in assay [2] and in assay [3] was no less than 80% throughout.

For `CCNC(=O)c1ccn(Cc2ccc(-c3noc(C(F)(F)F)n3)s2)n1` [Compound 1.120, N-ethyl-1-[[5-[5-(trifluoromethyl)-1,2,4-oxadiazol-3-yl]-2-thienyl]methyl]pyrazole-3-carboxamide], the inhibition of growth at 20 ppm in assay [1] is no less than 80%. Besides, the pest or weed control at 200 ppm in assay [2] and in assay [3] was no less than 80% each time.

As for `CC(c1ccc(-c2noc(C(F)(F)F)n2)s1)n1cc(C(=O)NCC(C)(C)C)cn1` (centres unmarked) [Compound 1.66, N-(2,2-dimethylpropyl)-1-[1-[5-[5-(trifluoromethyl)-1,2,4-oxadiazol-3-yl]-2-thienyl]ethyl]pyrazole-4-carboxamide], the inhibition of growth at 20 ppm in assay [1] was no less than 80%. Also, the pest or weed control at 200 ppm in assay [2] and in assay [3] was no less than 80% in each case.

`CC(C)CNC(=O)c1cnn(Cc2ccc(-c3noc(C(F)(F)F)n3)s2)c1` [Compound 1.109, N-isobutyl-1-[[5-[5-(trifluoromethyl)-1,2,4-oxadiazol-3-yl]-2-thienyl]methyl]pyrazole-4-carboxamide]: the inhibition of growth at 20 ppm in assay [1] is no less than 80%. Also, the pest or weed control at 200 ppm in assay [2] and in assay [3] was no less than 80% throughout.

With `CCN(C)C(=O)c1ccnn1Cc1ccc(-c2noc(C(F)(F)F)n2)s1` [Compound 1.169, N-ethyl-N-methyl-2-[[5-[5-(trifluoromethyl)-1,2,4-oxadiazol-3-yl]-2-thienyl]methyl]pyrazole-3-carboxamide], the inhibition of growth at 20 ppm in assay [1] was no less than 80%. In addition, the pest or weed control at 200 ppm in assay [2] and in assay [3] was no less than 80% in each case.

Turning to `CCCNC(=O)c1ccn(Cc2ccc(-c3noc(C(F)(F)F)n3)s2)n1` [Compound 1.137, N-propyl-1-[[5-[5-(trifluoromethyl)-1,2,4-oxadiazol-3-yl]-2-thienyl]methyl]pyrazole-3-carboxamide], in assay [1], the inhibition of growth at 20 ppm was no less than 80%. The pest or weed control at 200 ppm in assay [2] and in assay [3] was no less than 80% in each case.

For `C#CCNC(=O)c1ncn(Cc2ccc(-c3noc(C(F)(F)F)n3)s2)n1` [Compound 1.98, N-prop-2-ynyl-1-[[5-[5-(trifluoromethyl)-1,2,4-oxadiazol-3-yl]-2-thienyl]methyl]-1,2,4-triazole-3-carboxamide], in assay [1], the inhibition of growth at 20 ppm was no less than 80%. Also, the pest or weed control at 200 ppm in assay [2] and in assay [3] was no less than 80% in each case.

Regarding `C=CCNC(=O)c1cnn(C(C)c2ccc(-c3noc(C(F)(F)F)n3)s2)c1` (centres unmarked) [Compound 1.73, N-allyl-1-[1-[5-[5-(trifluoromethyl)-1,2,4-oxadiazol-3-yl]-2-thienyl]ethyl]pyrazole-4-carboxamide], the inhibition of growth at 20 ppm in assay [1] is no less than 80%. In addition, the pest or weed control at 200 ppm in assay [2] and in assay [3] was no less than 80% in each case.

Consider `O=Cc1cnn(Cc2ccc(-c3noc(C(F)(F)F)n3)s2)c1` [Compound 1.22, 1-[[5-[5-(trifluoromethyl)-1,2,4-oxadiazol-3-yl]-2-thienyl]methyl]pyrazole-4-carbaldehyde], for which the inhibition of growth at 20 ppm in assay [1] was no less than 80%. For the same molecule, the pest or weed control at 200 ppm in assay [2] and in assay [3] was no less than 80% in each case.

As for `CC(C)(C)CNC(=O)c1ncn(Cc2ccc(-c3noc(C(F)(F)F)n3)s2)n1` [Compound 1.145, N-(2,2-dimethylpropyl)-1-[[5-[5-(trifluoromethyl)-1,2,4-oxadiazol-3-yl]-2-thienyl]methyl]-1,2,4-triazole-3-carboxamide], the inhibition of growth at 20 ppm in assay [1] was no less than 80%. Also, the pest or weed control at 200 ppm in assay [2] and in assay [3] was no less than 80% throughout.

`O=C(NC1CC1)c1ccn(Cc2ccc(-c3noc(C(F)(F)F)n3)s2)n1` [Compound 1.126, N-cyclopropyl-1-[[5-[5-(trifluoromethyl)-1,2,4-oxadiazol-3-yl]-2-thienyl]methyl]pyrazole-3-carboxamide]: in assay [1], the inhibition of growth at 20 ppm was no less than 80%. The pest or weed control at 200 ppm in assay [2] and in assay [3] was no less than 80% each time.

In the case of `O=C(NC1CC1)c1nccn1Cc1ccc(-c2noc(C(F)(F)F)n2)s1` [Compound 1.177, N-cyclopropyl-1-[[5-[5-(trifluoromethyl)-1,2,4-oxadiazol-3-yl]-2-thienyl]methyl]imidazole-2-carboxamide], the pest or weed control at 200 ppm in assay [2] and in assay [3] was no less than 80% in each case.

Take `O=C(Nc1ccccc1)c1ccn(Cc2ccc(-c3noc(C(F)(F)F)n3)s2)n1` [Compound 1.130, N-phenyl-1-[[5-[5-(trifluoromethyl)-1,2,4-oxadiazol-3-yl]-2-thienyl]methyl]pyrazole-3-carboxamide]: the inhibition of growth at 20 ppm in assay [1] was no less than 80%. Besides, the pest or weed control at 200 ppm in assay [2] and in assay [3] was no less than 80% each time.

Turning to `CNC(=O)c1nccn1Cc1ccc(-c2noc(C(F)(F)F)n2)s1` [Compound 1.176, N-methyl-1-[[5-[5-(trifluoromethyl)-1,2,4-oxadiazol-3-yl]-2-thienyl]methyl]imidazole-2-carboxamide], the pest or weed control at 200 ppm in assay [2] and in assay [3] was no less than 80% in each case.

In the case of `CCN(CC)C(=O)c1ccnn1Cc1ccc(-c2noc(C(F)(F)F)n2)s1` [Compound 1.161, N,N-diethyl-2-[[5-[5-(trifluoromethyl)-1,2,4-oxadiazol-3-yl]-2-thienyl]methyl]pyrazole-3-carboxamide], the inhibition of growth at 20 ppm in assay [1] is no less than 80%. For the same molecule, the pest or weed control at 200 ppm in assay [2] and in assay [3] was no less than 80% throughout.

For `CC(c1ccc(-c2noc(C(F)(F)F)n2)s1)n1cc(C(=O)NC2CCCC2)cn1` (centres unmarked) [Compound 1.83, N-cyclopentyl-1-[1-[5-[5-(trifluoromethyl)-1,2,4-oxadiazol-3-yl]-2-thienyl]ethyl]pyrazole-4-carboxamide], the pest or weed control at 200 ppm in assay [2] and in assay [3] was no less than 80% throughout.

On to `CCN(CC)C(=O)c1cnn(Cc2ccc(-c3noc(C(F)(F)F)n3)s2)c1` [Compound 1.113, N,N-diethyl-1-[[5-[5-(trifluoromethyl)-1,2,4-oxadiazol-3-yl]-2-thienyl]methyl]pyrazole-4-carboxamide], for which the pest or weed control at 200 ppm in assay [2] and in assay [3] was no less than 80% in each case.

Source of the values: patent US11358957B2, “Microbiocidal oxadiazole derivatives” (SYNGENTA PARTICIPATIONS AG, priority 2017, dated 2022).
